Patent US11179348B2, “Combination comprising pterostilbene for the treatment of cancer” (FUNDACIÓN UNIVERSIDAD CATÓLICA DE VALENCIA SAN VICENTE …, priority 2015, dated 2021)
Marks after values point to notes of the source that are not given here.

How the values were obtained:
Design in all cases: species or system human
SK-OV-3 cells = assay: GSH levels and glutathione- and oxidative stress-related enzyme activities in SK-OV-3 cells growing in vivo; details: SK-OV-3, in vivo Pter, day 49
Procedure: (§1) To measure enzyme activity, isolated tumor cells were homogenized in 0.1 M phosphate buffer (pH 7.2) at 4° C. GCL and GSS activities were measured as described previously (Obrador, E. et al. Hepatology 35, 74-81 (2002)). GPX (selenium dependent) activity was measured as described by Flohé and Gunzler (Flohe, L. & Gunzler, W. A. Methods Enzymol 105, 114-121 (1984)) using H2O2 as a substrate. GSR activity was determined as described by Akerboom and Sies (Akerboom, T. P. et al, Bull Eur Physiopathol Respir 17 Suppl, 221-227 (1981)). GGT activity was measured as described previously (Obrador, E. et al. Hepatology 35, 74-81 (2002)). GST activity was measured using an assay kit from Sigma. TXNRD activity, defined by the concentration of sodium-lipoate (disulfide) reduced to dehydrolipoate (dithiol) per milligram protein, was measured as previously described (Javvadi, P. et al. Cancer Res 70, 1941-1950 (2010)). SOD activity was measured as described by Flohé and Otting (Flohe, L. & Otting, F. Methods Enzymol 105, 93-104 (1984).) using 2 mM cyanide in the assay medium to distinguish mangano-type enzyme (SOD2) from the cuprozinc type (SOD1). CAT activity was analyzed as described by Aebi (Aebi, H. Methods Enzymol 105, 121-126 (1984)). NOX activity was measured by chemiluminescence following the methodology of Wind et al. (Wind, S. et al. Comparative pharmacology of chemically distinct NADPH oxidase inhibitors. Br J Pharmacol 161, 885-898 (2010)). Protein concentration was determined with the Pierce BCA protein assay (Fisher Scientific, Waltham, Mass.).
(§2) GSH, GSSG, NADP^+ and NADPH Determination.
(§3) GSH and GSSG were determined, following procedures previously described (Obrador, E. et al. PLoS One 9, e96466 (2014)), by LC/MS using the same equipment described above for pterostilbene determination. Cell processing was performed according to published methodology, where rapid N-ethylmaleimide derivatization was used to prevent GSH auto-oxidation (Asensi, M. et al. Anal Biochem 217, 323-328 (1994)). NADP^+ and NADPH were quantitated using an assay kit from Sigma (St. Louis, Mo.).
(§4) Isolation of Tumor Cells from Mouse Xenografts Using Enzymatic Digestion and a double Ficoll gradient.
(§5) To maximize the amount of isolated cells, avoiding the use of RFP-transfected cells and subsequent laser microdissection, an alternative methodology was set up. To maximize cell yield and viability the following combination of enzymes was used: collagenase III (200 U/ml; Sigma-Aldrich), DNase I (200 U/ml; Sigma-Aldrich) and trypsin (5 mg/ml; Invitrogen), and a non-enzymatic dissociation buffer (NEDB, Invitrogen). Briefly, mice were killed, and tumors were removed (avoiding skin, muscle and fat) into cold culture media and processed immediately. The tumors were minced into 1-3 mm fragments, which were then incubated with the dissociation solution (see above) for 30 min at 37° C. The tumor fragments were mixed up and down every 10 min using a […] micropipette with a tip cut to a diameter adapted to tissue fragment size. After each incubation period, the fragments were filtered through a […] nylon mesh cell strainer (BD Biosciences, San Diego, Calif., USA). The released cells were centrifuged at 1200 r.p.m. for 2 min and stored in cold CO2-independent medium with 30% FCS at […]. Fresh dissociation solution was added to the remaining tissue fragments for 30 min. Dissociation was stopped when no additional cells were released. The fragments were pushed through a sieve and all cells from all incubation periods were pooled and counted.
(§6) The dissociated cells were layered onto a double Ficoll gradient (Histopaque; Sigma-Aldrich; densities 1.077 and 1.119) and spun at 700 g for 30 min at room temperature. Cells removed from both interfaces were pooled and washed two times in CO2-independent medium and stored at 4° C. Debris and red blood cell elimination was improved with the dual-density gradient. […]

[1] = system: LNCaP prostate adenocarcinoma; assay: In vivo growth of LNCaP prostate cancer xenografts; details: day 49
MelJuso melanoma = assay: In vivo growth of MelJuso melanoma xenografts in nu/nu mice
PC-3 cells = assay: GSH levels and glutathione- and oxidative stress-related enzyme activities in PC-3 cells growing in vivo; details: PC-3, in vivo Pter, day 21
Procedure: as §1, §2, §3, §4, §5, §6

MeWo melanoma cells = assay: Nrf2- and redox state-related enzyme activities and metabolites in MeWo cells growing in vivo; details: in vivo +Pter, day 35
Procedure: Transfection of the Red Fluorescence Protein.
First the pDsRed-2 vector (Clontech Laboratories Inc., Palo Alto, Calif.) was used, as previously described for A375 melanoma cells (Mena, S. et al. J Transl Med 10, 8 (2012)), to engineer A2058, MeWo and MelJuso melanoma clones stably expressing the RFP. Isolation of A2058-RFP, MeWo-RFP or MelJuso-RFP cells from the growing xenografts was performed by laser microdissection and high-performance cell sorting as previously described in detail (Mena, S. et al. J Transl Med 10, 8 (2012)).
as §1
Measurement of H2O2 and O2^⋅−.
Quantitative measurement of H2O2 and flow cytometry determination of O2^⋅− generation were performed as previously described (Benlloch, M. et al. J Biol Chem 281, 69-79 (2006)).
as §2, §3

[2] = system: MDA-MB-231 breast adenocarcinoma; assay: In vivo growth of MDA-MB-231 breast cancer xenografts; details: MDA-MB-231, day 35

COc1cc(/C=C/c2ccc(O)cc2)cc(OC)c1 [Pter, trans-3,5-dimethoxy-4′-hydroxystilbene]
CAT (SK-OV-3 cells): 1.8 ± 0.4 mU/10^6 cells | GCL (SK-OV-3 cells): 18 ± 6 mU/10^6 cells | GSH (SK-OV-3 cells): 1.5 ± 0.7 nmol/10^6 cells | GSS (SK-OV-3 cells): 1.6 ± 0.4 mU/10^6 cells | GSSG (SK-OV-3 cells): 0.2 ± 0.05 nmol/10^6 cells | SOD1 (SK-OV-3 cells): 0.1 ± 0.03 U/10^6 cells | SOD2 (SK-OV-3 cells): 0.01 ± 0.005 U/10^6 cells | Tumor vol. [1]: 757 ± 194 mm^3 | inhibition of tumor growth (MelJuso melanoma; MelJuso, day 42, 30 mg Pter/kg i.v. every 48 h, vs controls): ~49% | Tumor vol. (MelJuso melanoma; MelJuso-RFP, 35 days after inoculation, Pter 30 mg/kg i.v. every 48 h and/or CRC infusion 0.3 μg/h): 145 ± 35* mm^3 | CAT (PC-3 cells): 0.3 ± 0.1 mU/10^6 cells | GCL (PC-3 cells): 27 ± 9 mU/10^6 cells | GSH (PC-3 cells): 2.4 ± 1.1 nmol/10^6 cells | GSS (PC-3 cells): 2.7 ± 0.7 mU/10^6 cells | GSSG (PC-3 cells): 0.05 ± 0.02 nmol/10^6 cells | SOD1 (PC-3 cells): 0.05 ± 0.01 U/10^6 cells | SOD2 (PC-3 cells): 0.01 ± 0.005 U/10^6 cells | CAT (MeWo melanoma cells): 1.6 ± 0.4 mU/10^6 cells | G6PDH (MeWo melanoma cells): 266 ± 39 mU/10^6 cells | GCL (MeWo melanoma cells): 35 ± 12 mU/10^6 cells | GGT (MeWo melanoma cells): 16.0 ± 2.4 mU/10^6 cells | GPX (MeWo melanoma cells): 2.8 ± 1.0 mU/10^6 cells | GSH (MeWo melanoma cells): 7.3 ± 1.7 nmol/10^6 cells | GSH/GSSG (MeWo melanoma cells): 73 ± 11 | GSR (MeWo melanoma cells): 4.9 ± 1.2 mU/10^6 cells | GSS (MeWo melanoma cells): 7.4 ± 1.6 mU/10^6 cells | GSSG (MeWo melanoma cells): 0.1 ± 0.03 nmol/10^6 cells | GST (MeWo melanoma cells): 6.5 ± 1.3 mU/10^6 cells | H2O2 (MeWo melanoma cells): 0.7 ± 0.2 nmol/10^6 cells × min | IDH (MeWo melanoma cells): 1.5 ± 0.4 U/10^6 cells | ME (MeWo melanoma cells): 32 ± 11 mU/10^6 cells | NADPH (MeWo melanoma cells): 0.05 ± 0.002 nmol/mg prot | NADPH/NADP^+ (MeWo melanoma cells): 1.2 ± 0.2 | NADP^+ (MeWo melanoma cells): 0.04 ± 0.01 nmol/mg prot | NOX (MeWo melanoma cells): 132 ± 25 R.L.U./10^6 cells | O2^− (MeWo melanoma cells): 3.5 ± 0.7 ΔFL1, a.u. | SOD1 (MeWo melanoma cells): 0.5 ± 0.2 U/10^6 cells | SOD2 (MeWo melanoma cells): 0.1 ± 0.05 U/10^6 cells | TXN (MeWo melanoma cells): 0.8 ± 0.2 μg/10^6 cells | TXNRD (MeWo melanoma cells): 0.9 ± 0.2 U/10^6 cells | Tumor vol. [2]: 266 ± 89* mm^3
